From US20150322083A1, “(THIENO[2,3-b][1,5]BENZOXAZEPIN-4-YL)PIPERAZIN-1-YL COMPOUNDS AS SELECTIVE 5-HT2A INVERSE AGONISTS” (Eli Lilly and Company, priority 2014, published 2015)

Legend:
[1] = target: 5-HT2B (Homo sapiens, UniProt P41595); assay: 5-HT2B binding (selectivity data)
Description: Curves are evaluated using a 4-parameter logistic nonlinear equation to obtain the concentration of competitor causing 50% inhibition of radioligand binding (IC50). Equilibrium dissociation constants (Ki) are calculated according to the equation Ki=IC50/(1+L/Kd), where L equals the concentration of radioligand used in the experiment and Kd equals the equilibrium dissociation constant of the radioligand for the receptor, determined from standard saturation analysis or homologous competition experiments. Reported values for Ki, where n values are indicated, are shown as geometric mean±the standard error of the mean (SEM), with the number of replicate determinations indicated by n. Geometric means are calculated by the equation GeoMean=10̂(Average(log Ki 1+log Ki 2+ . . . log Ki n)/[…]).
Further, the compounds of the invention may be tested in binding assays and functional activity assays by well known methods for other physiologically important receptors such as, but not limited to, the hERG channel, other serotonin receptors (specifically 5-HT1B receptors, lack of agonist activity at 5-HT2B receptors, 5-HT2C, 5-HT5, 5-HT6, and 5-HT7 receptors), dopaminergic receptors (specifically D1, D2, and D3), H1 receptors, GABAA receptors, adrenergic receptors and monoamine transporters.

[2] = test system: MK-801 induced locomotor hyperactivity; assay: MK-801 induced locomotor hyperactivity in mice; type: in vivo; details: for Distance traveled during habituation with vehicle or compound, Mean: 1 hr. habituation before MK-801; for Distance traveled after administration of vehicle or 0.1 mg/Kg MK-801, Mean: 2 hrs after MK-801 0.1 mg/kg SC
Source text: MK-801 induced locomotor hyperactivity in mice: The rodent MK-801 induced locomotor hyperactivity assay has been used as a predictor of anti-psychotic therapeutic potential (Corbett, R., Camacho, F., Woods, A. T., Kerman, L. L., Fishkin, R. J., Brooks, K., and Dunn, R. W. Antipsychotic agents antagonize non-competitive N-methyl-D-aspartate antagonist-induced behaviors. Psychopharmacology (1995) vol. 120: 67-74). Compounds of the invention may be evaluated for their ability to reduce locomotor hyperactivity elicited by the NMDA receptor antagonist MK-801. Studies are conducted in the dark. Locomotor activity is measured in clear Perspex™ boxes (40×40×30 cm) based on infrared fields (100×100 cm). Sixteen boxes are used, four on each field, each monitored using overhead infrared cameras (Sanyo VCV-3412P, TrackSys Ltd, UK). The cameras feed into a Quad Videoswitch (VQ403-C), TrackSys Ltd, UK), which in turn feeds a PC running the image analysis application Ethovision v8 (Noidus, NL).
All treatment tzroups have initial sample sizes of n=8. Mice are assigned to groups using a pseudorandomised block method where treatments are balanced across the time of day of testing and the test room used. On the test day, animals are transported to the testing room ante-chamber in their home cages and dosed with the test compound (0.3-3 mg/kg po) or vehicle before being placed individually into the test boxes for 1 hr., during which time locomotor activity is measured. Following this habituation period, animals are dosed with MK-801 (0.1 mg/kg SC) or vehicle as appropriate and then replaced into the test boxes where locomotor activity is measured for a further 2 hrs. The measurement of interest for LMA studies is the distance moved (cm). Unless stated otherwise, points on all graphs are plotted as the mean±standard errors.
Data are imported into STATISTICA (v9) for statistical analyses. A general linear model approach is used for all multivariate ANOVAs calculated for the data. Following ANOVA, planned comparisons are used to investigate significant differences from the control animals. Statistical significances are denoted by the following symbols: *p<0.05, **p<0.01. Mean values calculated in Statistica are imported into SigmaPlot (v11) to graph the data.

Sequence of 5-HT2B (P41595 whole entry, species assumed): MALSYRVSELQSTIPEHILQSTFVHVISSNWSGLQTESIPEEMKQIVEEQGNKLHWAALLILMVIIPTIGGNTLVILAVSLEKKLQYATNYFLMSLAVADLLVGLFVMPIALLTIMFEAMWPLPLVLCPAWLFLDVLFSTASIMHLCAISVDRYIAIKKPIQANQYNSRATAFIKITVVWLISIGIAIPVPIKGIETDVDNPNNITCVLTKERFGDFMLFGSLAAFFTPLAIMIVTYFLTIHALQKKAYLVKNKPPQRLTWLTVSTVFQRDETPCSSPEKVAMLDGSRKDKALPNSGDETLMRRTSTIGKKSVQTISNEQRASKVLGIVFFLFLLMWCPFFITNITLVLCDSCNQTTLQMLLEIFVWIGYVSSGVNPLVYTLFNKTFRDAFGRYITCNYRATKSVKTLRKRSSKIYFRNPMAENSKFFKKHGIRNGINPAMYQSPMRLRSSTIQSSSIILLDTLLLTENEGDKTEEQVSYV

Structure (SMILES): Cc1ccc2c(c1)Oc1sc(SC(C)C)cc1C(N1CCN(CC(C)(C)C(=O)O)CC1)=N2 [Example 1, 3-[4-(2-isopropylsulfanyl-8-methyl-thieno[2,3-b][1,5]benzoxazepin-4-yl)piperazin-1-yl]-2,2-dimethyl-propanoic acid]
- Ki [1]: 763 nM
- Distance traveled during habituation with vehicle or compound, Mean ([2]; 0.3 mg/Kg po): 9336.73 cm
- Distance traveled after administration of vehicle or 0.1 mg/Kg MK-801, Mean ([2]; 0.3 mg/Kg po): 8492.08 cm
- Distance traveled during habituation with vehicle or compound, Mean ([2]; 1.0 mg/Kg po): 8939.48 cm
- Distance traveled after administration of vehicle or 0.1 mg/Kg MK-801, Mean ([2]; 1.0 mg/Kg po): 7258.87 cm
- Distance traveled during habituation with vehicle or compound, Mean ([2]; 3.0 mg/Kg po): 7682.77 cm
- Distance traveled after administration of vehicle or 0.1 mg/Kg MK-801, Mean ([2]; 3.0 mg/Kg po): 7085.68 cm
- effect on MK-801 induced locomotor hyperactivity (in words) ([2]; 0.3-3 mg/kg po): significantly block
